In general, IC50 refers to the concentration that inhibits the measured activity by half.

SMILES strings stand for the structures.

Our source for the IC50 values is publication PMC10850561, “Eutypellaolides A–J, Sesquiterpene diversity expansion of the polar fungus Eutypella sp. D-1” (Frontiers in Microbiology, 2024).

The assay addresses T1, PTP1B (Homo sapiens, UniProt P18031).
T1 construct: gene PTPN1
T1 sequence (P18031 1-435): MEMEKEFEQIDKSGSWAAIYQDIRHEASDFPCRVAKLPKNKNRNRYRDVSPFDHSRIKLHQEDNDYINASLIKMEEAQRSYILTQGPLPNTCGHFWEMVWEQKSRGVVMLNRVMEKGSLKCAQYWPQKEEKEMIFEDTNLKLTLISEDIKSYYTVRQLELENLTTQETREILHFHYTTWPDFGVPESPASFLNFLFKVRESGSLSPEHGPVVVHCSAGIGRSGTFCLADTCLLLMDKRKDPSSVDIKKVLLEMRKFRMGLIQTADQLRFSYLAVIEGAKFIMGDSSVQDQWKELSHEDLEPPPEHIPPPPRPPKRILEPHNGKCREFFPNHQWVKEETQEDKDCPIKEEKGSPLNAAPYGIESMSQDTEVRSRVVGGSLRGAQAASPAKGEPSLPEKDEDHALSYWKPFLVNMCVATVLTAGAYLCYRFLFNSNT
Put plainly: PTP1B enzyme inhibition assay in 96-well microplates. The class given is biochemical.
In the case of `CO[C@]1(C)C2=CC3=C(CO)C(=O)OC3=C[C@]2(C)CC[C@@H]1O` [compound 5, Eutypellaolide E], the half-inhibitory concentration (IC50) was 44.8 µM. This counts as double-digit micromolar. `CC1=CCC[C@@H]2CC3=C(CO)C(=O)OC3=CC12C` (stereo partly drawn) [compound 11, eut-Guaiane] had an IC50 of 43.2 µM.

In the case of `CC1=CC(=O)C[C@@]2(C)C=C3OC(=O)C(CO)=C3C=C12` [compound 14, 2-one-13hydroxy-3,5,8,7(11)-eudesmatetraen-12,8-olide], the 50% inhibitory concentration (IC50) is 49.5 µM.
